pIC50: −log10 of the molar value.
Molecular target: Cyclin-dependent kinase 4 (Homo sapiens, UniProt P11802)
Assay: Inhibition of CDK4

Sequence of Cyclin-dependent kinase 4 (P11802 whole entry): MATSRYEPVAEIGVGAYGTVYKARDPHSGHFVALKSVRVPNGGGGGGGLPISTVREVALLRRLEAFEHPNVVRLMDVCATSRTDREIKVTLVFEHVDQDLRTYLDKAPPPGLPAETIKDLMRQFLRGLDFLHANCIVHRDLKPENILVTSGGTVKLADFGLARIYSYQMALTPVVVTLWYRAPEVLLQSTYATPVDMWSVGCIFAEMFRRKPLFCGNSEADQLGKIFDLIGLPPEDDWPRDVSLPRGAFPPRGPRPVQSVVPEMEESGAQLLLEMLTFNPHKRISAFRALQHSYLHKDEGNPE

Cc1ccc(Cl)c(N(CC#N)c2cc(Nc3ccc(OC[C@@H](O)CN(C)C)cc3)ncn2)c1 was tested, and the pIC50 was 7.33.
